Target: T1, recombinant human baculoviral VEGFR2 cyctoplasmic domain (Homo sapiens, UniProt P35968)
T1 construct: recombinant human baculoviral VEGFR2 cyctoplasmic domain; host or cells: baculovirus expression system
Experiment: VEGFR2 kinase inhibition assay (ELISA-based, time-resolved fluorescence)
Format: biochemical
Settings: 1 uM compound; 30 μM ATP; read-out: VEGFR-2 kinase % inhibition @ 1 uM
Method: Inhibition of Vascular Endothelial Growth Factor Receptor-2 Kinase Activity
Assay were performed as described for trkA kinase below. The 96-well microtiter plate (FluoroNUNC Maxisorp) was coated with 40 μg/ml recombinant human phospholipase C-γ1/glutathione S-transferase fusion protein. Inhibition studies were performed in 100 μl assay mixtures containing 50 mM HEPES, pH 7.4, 30 μM ATP, 10 mM MnCl2, 0.1% BSA, 2% DMSO, and 1 μM of test compound. The reaction was initiated by adding prephosphorylated recombinant human baculoviral VEGFR2 cyctoplasmic domain. The reaction was allowed to proceed for 15 minutes at 37° C. The detection antibody, eurpium-labeled anti-phosphotyrosine antibody (Wallac #CR04-100), was added at 1:5000 dilution in block buffer (3% BSA in TBST).

T1 sequence (P35968 786-1356 limits assumed): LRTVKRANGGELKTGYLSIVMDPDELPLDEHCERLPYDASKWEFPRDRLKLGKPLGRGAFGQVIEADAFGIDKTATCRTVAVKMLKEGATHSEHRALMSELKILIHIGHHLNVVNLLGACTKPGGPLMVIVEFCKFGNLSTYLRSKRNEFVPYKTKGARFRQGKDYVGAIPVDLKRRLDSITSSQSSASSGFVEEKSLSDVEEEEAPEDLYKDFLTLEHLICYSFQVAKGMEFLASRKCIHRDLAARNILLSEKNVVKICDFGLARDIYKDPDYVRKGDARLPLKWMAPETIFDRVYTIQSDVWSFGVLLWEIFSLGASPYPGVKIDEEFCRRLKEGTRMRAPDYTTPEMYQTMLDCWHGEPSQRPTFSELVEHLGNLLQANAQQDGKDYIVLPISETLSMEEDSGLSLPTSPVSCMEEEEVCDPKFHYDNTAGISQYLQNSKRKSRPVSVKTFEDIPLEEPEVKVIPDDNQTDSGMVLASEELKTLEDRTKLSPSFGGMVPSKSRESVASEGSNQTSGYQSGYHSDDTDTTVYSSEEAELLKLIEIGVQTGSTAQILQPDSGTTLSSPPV

Work on `Cc1cc(C)c(C=C2C(=O)NN=C2c2c[nH]c3ccccc23)[nH]1` [Compound 76, 4-[(3,5-dimethylpyrrol-2-yl)methylene]-3-indol-3-yl-2-pyrazolin-5-one] yielded an inhibition at 1 µM of 39%.
Compound `Cc1cc(C)c(CC2C(=O)NN=C2c2c[nH]c3ccccc23)[nH]1` (centres unmarked) [Compound 77, 4-[(3,5-dimethylpyrrol-2-yl)methyl]-3-indol-3-yl-2-pyrazolin-5-one] has an inhibition at 1 µM of 21%.
